From US8530680B2, “System and method for controlling growth of microorganisms with brominated furanones” (Syracuse University, priority 2008, dated 2013)

Columns and labels:
[1] = tested on: Candida albicans strain SC5341; assay: C. albicans growth curves in SD medium with furanones (96-well plates, OD600); format: cell-based; details: tested 2.5, 5, 10, 20 μg/mL
Protocol: To evaluate the effects of furanones on fungal growth, C. albicans was grown in a synthetic dextrose (“SD”) medium supplemented with 0, 2.5, 5, 10, or 20 μg/mL of one of eight different brominated furanones and […] furanones (BF1, BF8, BF9, BF11, BF12, BF14, NF1, NF2, or NF3).
The Candida albicans strain SC5341 used in this study was provided by Dr. Sean Palecek from the University of Wisconsin-Madison. C. albicans was routinely grown overnight at 30° C. and shaken at 200 rpm in a SD medium containing 0.67% (wt/vol) yeast nitrogen base without amino acids and 2% (wt/vol) dextrose, which was buffered with 0.165 M morpholinepropanesulfonic acid (MOPS, Sigma), and pH-adjusted to 7.0 with solid NaOH. The overnight culture was then sub-cultured in 25 mL of fresh SD medium to an initial optical density at 600 nm (OD600) of 0.005 and grown till the OD600 reached 1.0. The OD600 values were measured using a Spectronic GENESYS 5 UV-Vis spectrophotometer (Thermo Fisher Scientific®, Waltham, Mass.). This culture was used to inoculate sterile 96-well plates (Costar® No. 9017, Corning®, Corning, N.Y.) containing SD medium supplemented with furanones at different concentrations (0, 2.5, 5, 10, 20 μg/mL) to an OD600 of 0.06 in at least duplicates. The BF1, 8, 9, 11, 12, 14 and NF1-3 compounds were dissolved in ethanol at a concentration of 20 mg/mL. The BF10 compound was dissolved in methanol at a concentration of 20 mg/mL. The amounts of methanol and ethanol were adjusted to be the same for each sample to eliminate the effects of solvents. The samples were then incubated at 30° C. with shaking at 200 rpm, and the OD600 in each well was measured at 0, 4, 7, 17, and 42 hours after inoculation, using an ELx808™ Absorbance Microplate Reader (BioTek Instruments® Inc., Winooski, Vt.).

[2] = tested on: P. aeruginosa strain PAO1 biofilm formation; assay: Microplate-based biofilm assay (crystal violet, OD540) of P. aeruginosa; format: cell-based, Pseudomonas aeruginosa; details: 24 hours
Protocol: A microplate-based biofilm assay was used to further investigate whether furanones inhibit biofilm formation of P. aeruginosa strain PAO1. For this biofilm assay the strain was grown at 30° C. without shaking in M63 minimal medium containing 13.6 g/L KH2PO4, 2 g/L (NH4)2SO4, 0.5 mg/L FeSO4, 0.12 g/L MgSO4, 5 g/L vitamin free casamino acids and 5 g/L glucose (pH 7.0). The synthesis of the brominated furanones, the structures of which are shown in FIGS. 1A and 1B, was according to Example 1.
The overnight culture of P. aeruginosa was used to inoculate fresh M63 medium supplemented with furanones (0, 30 or 60 μg/mL) to an OD600 of 0.05 in 96-well plates. Four replicates were tested for each condition. The plates were incubated at 30° C. without shaking for 24 hours. The biofilm mass was quantified by following the protocol described previously. Briefly, the planktonic cells were carefully removed by pipetting and the plates with biofilms were washed three times with deionized H2O and dried by gently patting on a piece of paper towel. To quantify biofilms, the plates were stained with 0.1% crystal violet and incubated for 20 minutes at room temperature. The plates were then washed three times with deionized H2O to remove extra dyes. An OD540 was measured to quantify the biofilm on the bottom of each well.

[3] = tested on: P. aeruginosa strain PAO1; assay: Microplate based planktonic growth assay of P. aeruginosa; format: cell-based, Pseudomonas aeruginosa; details: for reduction of specific growth rate compared to furanone-free control: planktonic growth
Protocol: The antimicrobial activities of furanones on the planktonic growth of P. aeruginosa strain PAO1 was examined using a microplate based growth assay. An overnight culture of the strain grown in LB medium at 30° C. was used to inoculate M63 minimal medium supplemented with furanones at 0, 30 or 60 μg/mL to an optical density at 600 nm (OD600) of 0.05 in 96-well plates. The plates were then incubated at 30° C. with shaking at 200 rpm. The reading of OD600 was measured every 60 minutes for six hours using a microplate reader (ELx808, BioTek Instruments). Six replicates were tested for every sample. The synthesis of the brominated furanones, the structures of which are shown in FIGS. 1A and 1B, was according to Example 1.

[4] = tested on: Gloeophyllum trabeum strain GT599; assay: Fungal growth on MEA plates with furanone; format: cell-based; set-up: key to growth on plate, GT599: −: No growth was observed; +: normal growth was seen; details: for growth on plate, GT599: 60 μg/mL, 7 days at 30° C.; for growth inhibition test, inhibitory concentration, GT599: tested at 1, 5, 30, 60 μg/mL, 7 days
Protocol: (§1) This Example examines the effect of brominated furanones on the growth of fungi associated with damage to building material. Six fungal strains were the subject of these experiments; Gloeophyllum trabeum (strains GT598 and GT599), Chaetomium globosum (wildtype strain and CG572), and Trametes versicolor (strains TV7B2-59 and TV57MAD277). The species were developed on 2% Malt-Extract Agar (MEA) plates and stored inverted at 4° C. The stocks were refreshed by streaking new plates every two months.
(§2) The brominated and non-brominated furanones were added to MAE agar plates at different concentrations. The brominated furanones were dissolved in either ethanol (“EtOH”) or methanol (“MeOH”) as stock solutions, as shown in Table 5. The non-brominated furanones were purchased from Sigma (St. Louis, Mo.). The furanone stocks were stored at 4° C.
(§3) MAE agar plates containing the same amounts of ethanol/methanol were also prepared as negative controls to eliminate any solvent effects. The plates were prepared using either 90 mm or 60 mm petri dishes and were stored inverted at 4° C. until use.
(§4) Different concentrations of furanones were studied to compare their antifungal activities. The plates were inoculated with the six fungal strains using a platinum loop and were incubated upside down at 30° C. for 7 days to monitor the growth. The initial screening was performed using a single 60 μg/mL furanone concentration.

[5] = tested on: Trametes versicolor strain TV57MAD277; assay: Fungal growth on MEA plates with furanone; format: cell-based; set-up: key to growth on plate, TV57MAD277: −: No growth was observed; +: normal growth was seen; details: for growth on plate, TV57MAD277: 60 μg/mL, 7 days at 30° C.; for growth inhibition test, inhibitory concentration, TV57MAD277: tested at 1, 5, 30, 60 μg/mL, 7 days
Protocol: as §1, §2, §3, §4

[6] = tested on: Chaetomium globosum CG572; assay: Fungal growth on MEA plates with furanone; format: cell-based; set-up: key to growth on plate, CG572: −: No growth was observed; +: normal growth was seen; details: for growth on plate, CG572: 60 μg/mL, 7 days at 30° C.; for growth inhibition test, inhibitory concentration, CG572: tested at 1, 5, 30, 60 μg/mL, 7 days
Protocol: as §1, §2, §3, §4

[7] = tested on: Trametes versicolor strain TV7B2-59; assay: Fungal growth on MEA plates with furanone; format: cell-based; set-up: key to growth on plate, TV7B2-59: −: No growth was observed; +: normal growth was seen; details: for growth on plate, TV7B2-59: 60 μg/mL, 7 days at 30° C.; for growth inhibition test, inhibitory concentration, TV7B2-59: tested at 1, 5, 30, 60 μg/mL, 7 days
Protocol: as §1, §2, §3, §4

[8] = tested on: Chaetomium globosum wildtype strain (CG); assay: Fungal growth on MEA plates with furanone; format: cell-based; set-up: key to growth on plate, CG: −: No growth was observed; +: normal growth was seen; details: for growth on plate, CG: 60 μg/mL, 7 days at 30° C.; for growth inhibition test, inhibitory concentration, CG: tested at 1, 5, 30, 60 μg/mL, 7 days
Protocol: as §1, §2, §3, §4

[9] = tested on: Gloeophyllum trabeum strain GT598; assay: Fungal growth on MEA plates with furanone; format: cell-based; set-up: key to growth on plate, GT598: −: No growth was observed; +: normal growth was seen; details: for growth on plate, GT598: 60 μg/mL, 7 days at 30° C.; for growth inhibition test, inhibitory concentration, GT598: tested at 1, 5, 30, 60 μg/mL, 7 days
Protocol: as §1, §2, §3, §4

E. coli = E. coli growth inhibition (results not shown); format: cell-based
[10] = tested on: six fungal strains (Gloeophyllum trabeum, Chaetomium globosum, Trametes versicolor); assay: Fungal growth on MEA plates with furanone, statements for all six strains; format: cell-based; details: for growth inhibition of the six fungal strains, comparison: 1 to 60 μg/mL
Protocol: as §1, §2, §3, §4

SMILES	inhibitory effect on planktonic growth ([3]; 30 μg/mL)	inhibition of biofilm formation ([2]; 30 μg/mL)	inhibition of biofilm formation ([2]; 60 μg/mL)	growth inhibition test, inhibitory concentration, GT599 [4] [µg/mL]	growth inhibition test, inhibitory concentration, TV57MAD277 [5] [µg/mL]	growth inhibition test, inhibitory concentration, CG572 [6] [µg/mL]	growth inhibition test, inhibitory concentration, TV7B2-59 [7] [µg/mL]	growth inhibition test, inhibitory concentration, CG [8] [µg/mL]	growth inhibition test, inhibitory concentration, GT598 [9] [µg/mL]	further results
CC1=C(Br)C(C(Br)Br)OC1=O (stereo not drawn) [BF14, 4-bromo-5-(dibromomethyl)-3-methylfuran-2(5H)-one]	did not exhibit significant inhibitory effects									lowest concentration showing growth inhibition [1]: 20 µg/mL; inhibition of biofilm formation ([2]; 30 and 60 μg/mL): non-inhibitory
O=C1C=C(CBr)C(=O)O1 [BF15, 3-(bromomethyl)-2,5-furandione]										growth on plate, GT599 [4]: −; growth on plate, TV57MAD277 [5]: −; growth on plate, CG572 [6]: −; growth on plate, TV7B2-59 [7]: −; growth on plate, CG [8]: −; growth on plate, GT598 [9]: −
CC1=CC(C)OC1=O (stereo not drawn) [NF3, 3,5-Dimethylfuran-2(5H)-one, reference compound]	did not exhibit significant inhibitory effects									
O=C1O/C(=C\Br)C(Br)=C1CBr [BF12, 4-bromo-3-(bromomethyl)-5Z-(bromomethylene)furan-2-one]		significantly inhibited	significantly inhibited	5	5	5	5	1	1	growth inhibition of E. coli (E. coli): significantly inhibit; growth inhibition of the six fungal strains, comparison [10]: most significant inhibition; reduction of specific growth rate compared to furanone-free control ([3]; 30 μg/mL): 91.2%; reduction of specific growth rate compared to furanone-free control ([3]; 60 μg/mL): 100%
CC1=CC(=O)OC1=O [NF1, Citraconic anhydride; IUPAC: 3-methyl-2,5-furandione, reference compound]	did not exhibit significant inhibitory effects			60	60	60	60	60	60	
COC1=CC(=O)OC1 [NF2, 4-Methoxy-2(5H)-furanone; IUPAC: 4-methoxy-2(5H)-furanone, reference compound]										growth inhibition of the six fungal strains ([10]; 60 μg/mL, 7 days): did not show any apparent inhibition
CC1=C(Br)C(C(Br)Br)OC1=O (stereo not drawn) [BF13, 4-bromo-5-(dibromomethyl)-3-methylfuran-2(5Br)-one]	did not exhibit significant inhibitory effects	significantly inhibited	significantly inhibited	60	5	60	60	60	60	
O=C1OC(=C(Br)Br)C=C1CBr [BF11, 3-(bromomethyl)-5-(dibromomethylene)furan-2-one]		significantly inhibited	significantly inhibited	5	5	5	5	5	1	growth inhibition of E. coli (E. coli): significantly inhibit; growth inhibition of the six fungal strains, comparison [10]: most significant inhibition; growth on plate, GT599 [4]: −; growth on plate, TV57MAD277 [5]: −; growth on plate, CG572 [6]: −; reduction of specific growth rate compared to furanone-free control ([3]; 30 μg/mL): 27.3%; reduction of specific growth rate compared to furanone-free control ([3]; 60 μg/mL): 65.0%; growth on plate, TV7B2-59 [7]: −; growth on plate, CG [8]: −; growth on plate, GT598 [9]: −
